Assay results published in patent publication US6573246B1, “Modified ether glyceroglycolipids” (The Liposome Company, Inc., priority 1995, dated 2003).
Like-named read-outs stand apart in the source and are kept apart here. Blank lines part the entries; values can stand above or below the compound they belong to.

Tests used:
[1] = test system: MCF-7 (breast adenocarcinoma) cells; test: growth inhibition of MCF-7 cells in culture; assay type: cell-based, human; settings: MCF7, mean ± standard deviation, read-out: Gl50 (concentration of lipid required to inhibit the growth of fifty percent of the cells in culture)
Procedure: (§1) Human epithelial cancer cell lines were grown from frozen stocks originally obtained from the ATCC, in media commonly used for growing these cells in culture. For example, A549 cells (non-small cell lung adenocarcinoma) were cultured in Ham's F-12 medium, T84 cells (colon carcinoma) were cultured in a 1:1 mixture of F-12 and DMEM while MCF-7 (breast adenocarcinoma) and A427 (large cell lung carcinoma) cells were cultured in DMEM. The media were supplemented with 10% fetal bovine serum, penicillin (50 U/ml), streptomycin (50 micogram/ml) and fungizone (0.5 microgram/ml). OVCAR-3 cells (ovarian adenocarcinoma) were cultured in RPMI 1640 medium supplemented with 20% FBS and 10 microgram/ml insulin.
(§2) Cells were subcultured into 24-well plates and the cell number was monitored daily. When the cells were in log phase, the media was replaced with one containing the required drug concentration, and the cells were incubated for 72 h. The increase in cell numbers relative to control wells (without any drug) was determined after the incubation. Stock solutions of the drugs ([…]) were prepared in ethanol and stored at −20 deg. C. Etherlipid solutions (30 micromolar) in the appropriate media were prepared fresh on the day of the experiment and serially diluted to give the required concentrations. The final concentration of ethanol in all wells was 0.1% (v/v).
(§3) Gl50 values are given as the mean ± standard deviation; the Gl50 value from each experiment “n” was generated from three individual wells on two separate plates (six total wells); n=1 for compounds 3-6; n=2 for most cell lines treated with compound 2 ^an=3; ^bn=2; ^cn=6; ^dn=8.

[2] = test system: A549 cells (non-small cell lung adenocarcinoma); test: growth inhibition of A549 cells in culture; assay type: cell-based, human; settings: mean ± standard deviation, read-out: Gl50 (concentration of lipid required to inhibit the growth of fifty percent of the cells in culture)
Procedure: as §1, §2, §3

[3] = test system: MCF-7/Adr (adriamycin-resistant) cells; test: growth inhibition of MCF7/adr cells in culture; assay type: cell-based, human; settings: mean ± standard deviation, read-out: Gl50 (concentration of lipid required to inhibit the growth of fifty percent of the cells in culture)
Procedure: (§4) The Gl50 values for edelfosine (1), 2′-deoxy-β-D-arabinopyranosyl (2), 2′-deoxy-α-D-arabinopyranosyl (3), 2-O-methyl-β-D-glucopyranosyl (4), 2′-O-methyl-β-D-mannopyranosyl (5) and α-D-mannopyransoyl (6) on A-549, MCF-7, Lewis Lung, MCF-7/Adr (adriamycin-resistant), P388, P-388/Adr, L1210 and L1210/vmdr cells were determined and are set forth below (see Table 4) as the concentration (micromolar) of lipid required to inhibit the growth of fifty percent of the cells in culture.
as §3

HT29 cells = test: growth inhibition of HT29 cells in culture; assay type: cell-based; settings: read-out: Gl50 (concentration of lipid required to inhibit the growth of fifty percent of the cells in culture)
Lewis Lung cells = test: growth inhibition of Lewis Lung cells in culture; assay type: cell-based, murine; settings: mean ± standard deviation, read-out: Gl50 (concentration of lipid required to inhibit the growth of fifty percent of the cells in culture)
Procedure: as §4, §3

P388 cells = test: growth inhibition of P388 cells in culture; assay type: cell-based, murine; settings: mean ± standard deviation, read-out: Gl50 (concentration of lipid required to inhibit the growth of fifty percent of the cells in culture)
Procedure: as §4, §3

P-388/Adr cells = test: growth inhibition of P388/adr cells in culture; assay type: cell-based, murine; settings: mean ± standard deviation, read-out: Gl50 (concentration of lipid required to inhibit the growth of fifty percent of the cells in culture)
Procedure: as §4, §3

L1210 cells = test: growth inhibition of L1210 cells in culture; assay type: cell-based; settings: mean ± standard deviation, read-out: Gl50 (concentration of lipid required to inhibit the growth of fifty percent of the cells in culture)
Procedure: as §4, §3

L1210/vmdr cells = test: growth inhibition of L1210/vmdr cells in culture; assay type: cell-based; settings: mean ± standard deviation, read-out: Gl50 (concentration of lipid required to inhibit the growth of fifty percent of the cells in culture)
Procedure: as §4, §3

[4] = test system: OVCAR-3 cells (ovarian adenocarcinoma); test: growth inhibition of OVCAR-3 cells in culture; assay type: cell-based, human; settings: for growth: increase in cell numbers relative to control wells (control = 100): OVCAR-3, 72 h
Procedure: as §1, §2

IC50 [1]: 6.93 ± 0.12 µM
IC50 [2]: 9.9 ± 0.99 µM
IC50 [3]: 12.8 ± 0.85 µM
IC50 (HT29 cells; mean ± standard deviation): 7.59 ± 0.23 µM
IC50 (P388 cells): 12.7 ± 0.78 µM
IC50 (P-388/Adr cells): 10.2 ± 0.34 µM
IC50 (L1210 cells): 7.02 ± 0.49 µM
IC50 (L1210/vmdr cells): 7.09 ± 0.33 µM
Compound: CCCCCCCCCCCCCCCCOC[C@H](CO[C@H]1C[C@H](O)[C@H](O)CO1)OC [compound 2, 1-O-Hexadecyl-2-O-methyl-3-O-(2′-deoxy-β-D-arabinopyransoyl)-sn-glycerol]
IC50 (Lewis Lung cells): 11.1 ± 0.49 µM

IC50 ([1]; Homo sapiens): 9.66 µM
IC50 ([2]; Homo sapiens): 5.05 µM
IC50 ([4]; Homo sapiens, OVCAR-3 ovarian cancer cell line, read-out: Gl50 (the source's name)): 24 µM
IC50 ([3]; Homo sapiens, NCI/ADR-RES): 30.4 µM
IC50 (HT29 cells; Homo sapiens, HT-29, mean ± standard deviation): 2.2 µM
IC50 (P388 cells; Mus musculus): 4.33 µM
IC50 (P-388/Adr cells; Mus musculus): 6.39 µM
IC50 (L1210 cells; Mus musculus): 3.32 µM
IC50 (L1210/vmdr cells; Mus musculus): 11 µM
Compound: CCCCCCCCCCCCCCCCCCOCC(COP(=O)([O-])OCC[N+](C)(C)C)OC (stereo not drawn) [compound 1, edelfosine, reference compound]
growth: increase in cell numbers relative to control wells (control = 100) ([4]; lipid concentration 5 μM): 105.8 ± 8.5
growth: increase in cell numbers relative to control wells (control = 100) ([4]; lipid concentration 10 μM): 77.5 ± 1.0
growth: increase in cell numbers relative to control wells (control = 100) ([4]; lipid concentration 15 μM): 70.7 ± 9.9
growth: increase in cell numbers relative to control wells (control = 100) ([4]; lipid concentration 20 μM): 68.7 ± 13.6
growth: increase in cell numbers relative to control wells (control = 100) ([4]; lipid concentration 30 μM): 20.4 ± 8.1
IC50 (Lewis Lung cells; Mus musculus, Lewis lung carcinoma): 30.2 µM
